Results published in patent US20250127751A1, “Traditional Chinese Medicine Compound Preparation for Tumors and Application thereof” (priority 2023, published 2025).
Where “and” joins values, the source holds several entries; their conditions need not be identical. Equal entries are not always repeated. Where two headings read alike, the source gives them in different places.

Experiments:
Assay type in all cases: cell-based, human
[1] = test system: NB4 cells; conditions: 24 h
Procedure: The ANNEXIN V-FITC/PI double-staining method is established based on a principle of asymmetric loss of cell membrane in apoptotic cells, that is, externalization of phosphatidylserine. Determination of results: normal live cells: annexin V^−PI^−; apoptotic cells: annexin V^+PI^−, and necrotic or late apoptotic cells: annexin V^+PI^+.
NB4 cells at the logarithmic growth phase were seeded at a density of 1×10^5 cells/well into a 6-well plate, and dosed 24 h later. The proapoptotic effect of each group was detected according to the dosing methods in Table 1. The cells were collected 24 h after drug dosing and detected on a flow cytometer according to the operating procedure of an ANNEXIN V-FITC/PI apoptosis detection kit (purchased from Solarbio). The experiment was repeated three times.

[2] = test system: CD11b
Procedure: (§1) In an immunological marker examination of APL cells, CD11b is negative and CD33 is positive. The surface antigen CD33 is associated with the degree of cellular immaturity, while the surface antigen CD11b is associated with the degree of cellular maturity, High expression of CD11b, as an adhesion molecule on the cell surface, may be a marker of cell differentiation maturation.
(§2) NB4 cells at the logarithmic growth phase were seeded at a density of 2×10^5 cells/well into a 6-well plate, and dosed 24 h later. […] 24 h after the last dosing, cells were collected, centrifuged to remove the culture medium, washed twice with precooled PBS, and resuspended in 100 μL PBS. APC (allophycocyanin) and BB515 labeled CD11b and CD33 monoclonal antibodies and corresponding isotype antibodies (both purchased from BD, USA) were added respectively. Following mixing, the cells were incubated at 4° C. for 30 min, filtered through a cell filter membrane, and then detected.

[3] = test system: CD33
Procedure: as §1, §2

[4] = test system: NB4 cells; conditions: 10 d; doses of Table 2 (alone 30 μM, pairs 15 μM each, DCI 10 μM each)
Procedure: NB4 cells at the logarithmic growth phase were seeded at a density of 2×10^5 cells/well into a 6-well plate, and dosed 24 h later. […] NB4 cells cultured for 10 d were centrifuged at 110 g for 3 min, smeared, fixed with methanol, and air dried naturally. Then, the cell smear was stained with Wright's-Giemsa for morphological observation. The experiment was repeated three times.

[5] = test system: NB4 cells; conditions: single compound 30 μM; dosed 10 d
Procedure: When normal neutrophils or differentiated cells are stimulated, the production of intracellular superoxide anions increases. NBT receives hydrogen from NADPH in the differentiated cells and reduces into insoluble blue black or blue purple particles—formazane particles.
NB4 cells at the logarithmic growth phase were seeded at a density of 2×10^5 cells/well into a 6-well plate, and dosed 24 h later. […] 24 h after the last dose, the culture medium was discarded, and the cells were washed twice with PBS. 500 μL of a 0.1% NBT solution (purchased from Sigma and prepared from PBS) containing 1 μg/ml of phorbol ester (PMA, purchased from Sigma) was added to each well, and the cells were incubated at 37° C. for 30 min, washed twice with PBS, and observed under a microscope. In a 400× magnification field, 200 cells were randomly counted from each specimen. Cells containing gray or black formazane particles in the cytoplasm were counted as NBT reduction positive cells, and the percentage of the reduction positive cells was calculated. The experiment was repeated three times.

[6] = single compound 30 μM, dosed 10 d

| SMILES | Apoptosis rate of NB4 cells (%) ([1]; single compound 20 μM) | Apoptosis rate of NB4 cells (%) ([1]; single compound 40 μM) | Positive rate of CD11b expression in NB4 cells (%) [2, 6] [%] | Positive rate of CD33 expression in NB4 cells (%) [3, 6] [%] | Morphology of NB4 cells [4] | NBT reduction positive rate in NB4 cells (%) [5] | Positive rate of CD11b expression in NB4 cells (%) [2] [%] | Positive rate of CD33 expression in NB4 cells (%) [3] [%] |
| --- | --- | --- | --- | --- | --- | --- | --- | --- |
| Nc1ncnc2c1ncn2[C@@H]1O[C@H](CO)C[C@H]1O [CDY, Cordycepin] | 10.70 ± 3.54 | 19.39 ± 5.64 | 1.79 ± 1.42 | 37.14 ± 15.90 | no significant differences from the control group | 3.19% and 3.19 ± 2.09% | – | – |
| O=C1Nc2ccccc2/C1=C1/Nc2ccccc2C1=O [IDB, Indirubin] | 28.88 ± 11.51 | 31.38 ± 8.92 | – | – | – | 15.20% and 15.20 ± 4.10 % | 26.42 ± 10.91 | 27.50 ± 16.67 |
